Reference: ChEMBL document CHEMBL4507261, “Data for DCP probe A-192621” (2021)

How the values were obtained:
[1] = target: Cannabinoid receptor 2 (Homo sapiens) (UniProt P34972); assay: CB2 (h) Eurofins-Cerep binding assay; parameters: ligand concentration 0.8 nM; conditions: filed as agonist, Compound concentration 10.0 uM
[2] = target: 5-hydroxytryptamine receptor 2B (Homo sapiens) (UniProt P41595); assay: 5-HT2B (h) Eurofins-Cerep binding assay; parameters: ligand concentration 0.2 nM; conditions: filed as agonist, Compound concentration 10.0 uM
[3] = target: voltage-gated L-type Ca2+ channel (diltiazem site, benzothiazepines) (Rattus norvegicus, UniProt P22002+P27732+Q02485); assay: Ca2+ channel (L, diltiazem site) (benzothiazepines) Eurofins-Cerep binding assay; parameters: incubation time 120 min, incubation temperature RT, ligand concentration 15 nM; conditions: rat cerebral cortex (source of protein), probe [3H]diltiazem (15 nM), compound concentration 10 uM, read-out: % Inhibition of Control Specific Binding (Mean n=2)
[4] = target: voltage-gated Na+ channel (site 2) (Rattus norvegicus, UniProt F1LQQ7+O08562+O88420+O88457+P04774+P04775+P08104+P15389+P15390+Q62968); assay: Na+ channel (site 2) Eurofins-Cerep binding assay; parameters: incubation time 60 min, incubation temperature 37°C, ligand concentration 10 nM; conditions: rat cerebral cortex (source of protein), probe [3H]batrachotoxin (10 nM), compound concentration 10 uM, read-out: % Inhibition of Control Specific Binding (Mean n=2)
[5] = target: Atypical kinase COQ8A, mitochondrial (Homo sapiens) (UniProt Q8NI60); conditions: Compound concentration 1000.0 nM
[6] = target: Mitogen-activated protein kinase kinase kinase 6 (Homo sapiens) (UniProt O95382); conditions: Compound concentration 1000.0 nM
[7] = target: Tyrosine-protein kinase BTK (Homo sapiens) (UniProt Q06187); conditions: Compound concentration 1000.0 nM
[8] = target: Cyclin-dependent kinase 3 (Homo sapiens) (UniProt Q00526); conditions: Compound concentration 1000.0 nM
[9] = target: Cyclin-dependent kinase 9 (Homo sapiens) (UniProt P50750); conditions: Compound concentration 1000.0 nM
[10] = target: Citron Rho-interacting kinase (Homo sapiens) (UniProt O14578); conditions: Compound concentration 1000.0 nM
[11] = target: Casein kinase I isoform alpha-like (Homo sapiens) (UniProt Q8N752); conditions: Compound concentration 1000.0 nM
[12] = target: Casein kinase I isoform gamma-3 (Homo sapiens) (UniProt Q9Y6M4); conditions: Compound concentration 1000.0 nM
Casein kinase I isoform gamma-3 (Homo sapiens), sequence (Q9Y6M4 whole entry, looked up, canonical isoform): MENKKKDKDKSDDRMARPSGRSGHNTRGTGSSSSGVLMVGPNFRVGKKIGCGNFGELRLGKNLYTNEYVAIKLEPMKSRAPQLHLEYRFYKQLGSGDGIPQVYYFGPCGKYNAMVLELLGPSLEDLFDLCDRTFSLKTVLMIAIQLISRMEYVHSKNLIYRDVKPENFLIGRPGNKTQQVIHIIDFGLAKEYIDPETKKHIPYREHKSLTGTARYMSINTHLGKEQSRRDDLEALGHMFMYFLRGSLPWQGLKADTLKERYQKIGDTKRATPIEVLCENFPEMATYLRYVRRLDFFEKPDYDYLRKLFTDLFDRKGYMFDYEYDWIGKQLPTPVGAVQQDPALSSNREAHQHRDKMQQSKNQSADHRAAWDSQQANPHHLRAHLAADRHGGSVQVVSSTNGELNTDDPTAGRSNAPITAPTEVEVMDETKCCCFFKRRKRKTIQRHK

[13] = target: Death-associated protein kinase 2 (Homo sapiens) (UniProt Q9UIK4); conditions: Compound concentration 1000.0 nM
[14] = target: Discoidin domain-containing receptor 2 (Homo sapiens) (UniProt Q16832); conditions: Compound concentration 1000.0 nM
[15] = target: Epidermal growth factor receptor (Homo sapiens) (UniProt P00533); conditions: Compound concentration 1000.0 nM
Epidermal growth factor receptor (Homo sapiens), sequence (P00533 whole entry): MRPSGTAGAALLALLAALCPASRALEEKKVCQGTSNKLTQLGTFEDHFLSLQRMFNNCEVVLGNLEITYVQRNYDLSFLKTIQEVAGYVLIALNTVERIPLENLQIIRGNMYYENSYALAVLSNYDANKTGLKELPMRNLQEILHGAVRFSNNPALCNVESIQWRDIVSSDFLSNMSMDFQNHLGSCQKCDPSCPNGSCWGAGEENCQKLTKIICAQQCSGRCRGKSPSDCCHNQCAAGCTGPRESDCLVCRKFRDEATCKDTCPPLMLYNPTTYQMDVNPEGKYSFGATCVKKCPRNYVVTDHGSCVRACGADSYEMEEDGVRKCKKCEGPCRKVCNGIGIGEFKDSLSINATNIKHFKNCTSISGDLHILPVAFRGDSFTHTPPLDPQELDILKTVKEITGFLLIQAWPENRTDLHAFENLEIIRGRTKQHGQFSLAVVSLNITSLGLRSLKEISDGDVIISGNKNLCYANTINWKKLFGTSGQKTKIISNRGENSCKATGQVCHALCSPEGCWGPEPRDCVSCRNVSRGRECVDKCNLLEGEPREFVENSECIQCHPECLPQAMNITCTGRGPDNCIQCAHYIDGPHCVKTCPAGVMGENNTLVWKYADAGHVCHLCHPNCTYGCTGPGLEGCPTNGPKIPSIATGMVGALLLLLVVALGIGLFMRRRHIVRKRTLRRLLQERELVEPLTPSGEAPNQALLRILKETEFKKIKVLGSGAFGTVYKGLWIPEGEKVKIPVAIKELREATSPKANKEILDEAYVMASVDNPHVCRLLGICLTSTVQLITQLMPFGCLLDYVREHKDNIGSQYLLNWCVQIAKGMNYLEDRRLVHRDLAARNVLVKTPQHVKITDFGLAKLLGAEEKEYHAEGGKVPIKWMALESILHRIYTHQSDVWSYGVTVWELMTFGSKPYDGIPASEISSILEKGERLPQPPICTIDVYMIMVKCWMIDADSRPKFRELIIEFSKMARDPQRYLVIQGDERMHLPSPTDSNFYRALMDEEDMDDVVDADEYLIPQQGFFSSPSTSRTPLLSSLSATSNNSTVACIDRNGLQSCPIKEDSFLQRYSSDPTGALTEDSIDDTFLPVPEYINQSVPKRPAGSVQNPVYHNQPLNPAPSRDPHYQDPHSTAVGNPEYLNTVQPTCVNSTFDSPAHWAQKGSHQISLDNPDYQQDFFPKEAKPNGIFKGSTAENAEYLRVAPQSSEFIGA

[16] = test system: Epidermal growth factor receptor (Homo sapiens), P00533 [UNDEFINED MUTATION]; conditions: Compound concentration 1000.0 nM
Epidermal growth factor receptor (Homo sapiens), P00533 [UNDEFINED MUTATION], sequence (P00533 whole entry, looked up, change not shown): as the sequence (P00533 whole entry) above

[17] = test system: Epidermal growth factor receptor (Homo sapiens), P00533 [UNDEFINED MUTATION]; conditions: Compound concentration 1000.0 nM; remark: listed apart in the source
[18] = target: Focal adhesion kinase 1 (Homo sapiens) (UniProt Q05397); conditions: Compound concentration 1000.0 nM
[19] = target: Vascular endothelial growth factor receptor 3 (Homo sapiens) (UniProt P35916); conditions: Compound concentration 1000.0 nM
[20] = target: Homeodomain-interacting protein kinase 1 (Homo sapiens) (UniProt Q86Z02); conditions: Compound concentration 1000.0 nM
[21] = target: Homeodomain-interacting protein kinase 3 (Homo sapiens) (UniProt Q9H422); conditions: Compound concentration 1000.0 nM
[22] = target: Insulin receptor (Homo sapiens) (UniProt P06213); conditions: Compound concentration 1000.0 nM
[23] = target: Tyrosine-protein kinase JAK1 (Homo sapiens) (UniProt P23458); conditions: Compound concentration 1000.0 nM
[24] = test system: Mast/stem cell growth factor receptor Kit (Homo sapiens), P10721 [D816V]; conditions: Compound concentration 1000.0 nM
[25] = target: LIM domain kinase 2 (Homo sapiens) (UniProt P53671); conditions: Compound concentration 1000.0 nM
[26] = target: Mitogen-activated protein kinase kinase kinase 3 (Homo sapiens) (UniProt Q99759); conditions: Compound concentration 1000.0 nM
Mitogen-activated protein kinase kinase kinase 3 (Homo sapiens), sequence (Q99759 whole entry): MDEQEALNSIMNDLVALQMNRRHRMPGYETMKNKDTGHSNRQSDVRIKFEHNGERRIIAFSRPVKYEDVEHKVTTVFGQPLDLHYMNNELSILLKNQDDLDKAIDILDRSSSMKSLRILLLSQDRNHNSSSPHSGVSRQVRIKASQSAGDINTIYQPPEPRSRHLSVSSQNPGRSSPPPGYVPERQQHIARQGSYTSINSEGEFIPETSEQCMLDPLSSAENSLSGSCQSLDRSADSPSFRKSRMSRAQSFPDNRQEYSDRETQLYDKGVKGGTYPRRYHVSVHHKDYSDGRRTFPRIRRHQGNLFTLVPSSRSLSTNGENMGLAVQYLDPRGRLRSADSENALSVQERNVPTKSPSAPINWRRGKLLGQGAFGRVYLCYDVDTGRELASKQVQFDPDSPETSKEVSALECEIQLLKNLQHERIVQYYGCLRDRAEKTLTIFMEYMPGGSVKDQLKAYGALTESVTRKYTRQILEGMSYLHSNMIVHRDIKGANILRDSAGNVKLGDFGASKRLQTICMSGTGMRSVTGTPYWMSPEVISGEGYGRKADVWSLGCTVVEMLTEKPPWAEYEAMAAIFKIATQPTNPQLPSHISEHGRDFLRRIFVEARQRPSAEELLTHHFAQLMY

[27] = target: Dual specificity mitogen-activated protein kinase kinase 2 (Homo sapiens) (UniProt P36507); conditions: Compound concentration 1000.0 nM
[28] = target: Dual specificity mitogen-activated protein kinase kinase 7 (Homo sapiens) (UniProt O14733); conditions: Compound concentration 1000.0 nM
[29] = target: Interferon-induced, double-stranded RNA-activated protein kinase (Homo sapiens) (UniProt P19525); conditions: Compound concentration 1000.0 nM
[30] = target: RAF proto-oncogene serine/threonine-protein kinase (Homo sapiens) (UniProt P04049); conditions: Compound concentration 1000.0 nM
[31] = target: Ribosomal protein S6 kinase alpha-2 (Homo sapiens) (UniProt Q15349); conditions: Compound concentration 1000.0 nM
[32] = target: Tyrosine-protein kinase Srms (Homo sapiens) (UniProt Q9H3Y6); conditions: Compound concentration 1000.0 nM
[33] = target: STE20/SPS1-related proline-alanine-rich protein kinase (Homo sapiens) (UniProt Q9UEW8); conditions: Compound concentration 1000.0 nM
[34] = target: Tyrosine-protein kinase receptor Tie-1 (Homo sapiens) (UniProt P35590); conditions: Compound concentration 1000.0 nM
Tyrosine-protein kinase receptor Tie-1 (Homo sapiens), sequence (P35590 whole entry): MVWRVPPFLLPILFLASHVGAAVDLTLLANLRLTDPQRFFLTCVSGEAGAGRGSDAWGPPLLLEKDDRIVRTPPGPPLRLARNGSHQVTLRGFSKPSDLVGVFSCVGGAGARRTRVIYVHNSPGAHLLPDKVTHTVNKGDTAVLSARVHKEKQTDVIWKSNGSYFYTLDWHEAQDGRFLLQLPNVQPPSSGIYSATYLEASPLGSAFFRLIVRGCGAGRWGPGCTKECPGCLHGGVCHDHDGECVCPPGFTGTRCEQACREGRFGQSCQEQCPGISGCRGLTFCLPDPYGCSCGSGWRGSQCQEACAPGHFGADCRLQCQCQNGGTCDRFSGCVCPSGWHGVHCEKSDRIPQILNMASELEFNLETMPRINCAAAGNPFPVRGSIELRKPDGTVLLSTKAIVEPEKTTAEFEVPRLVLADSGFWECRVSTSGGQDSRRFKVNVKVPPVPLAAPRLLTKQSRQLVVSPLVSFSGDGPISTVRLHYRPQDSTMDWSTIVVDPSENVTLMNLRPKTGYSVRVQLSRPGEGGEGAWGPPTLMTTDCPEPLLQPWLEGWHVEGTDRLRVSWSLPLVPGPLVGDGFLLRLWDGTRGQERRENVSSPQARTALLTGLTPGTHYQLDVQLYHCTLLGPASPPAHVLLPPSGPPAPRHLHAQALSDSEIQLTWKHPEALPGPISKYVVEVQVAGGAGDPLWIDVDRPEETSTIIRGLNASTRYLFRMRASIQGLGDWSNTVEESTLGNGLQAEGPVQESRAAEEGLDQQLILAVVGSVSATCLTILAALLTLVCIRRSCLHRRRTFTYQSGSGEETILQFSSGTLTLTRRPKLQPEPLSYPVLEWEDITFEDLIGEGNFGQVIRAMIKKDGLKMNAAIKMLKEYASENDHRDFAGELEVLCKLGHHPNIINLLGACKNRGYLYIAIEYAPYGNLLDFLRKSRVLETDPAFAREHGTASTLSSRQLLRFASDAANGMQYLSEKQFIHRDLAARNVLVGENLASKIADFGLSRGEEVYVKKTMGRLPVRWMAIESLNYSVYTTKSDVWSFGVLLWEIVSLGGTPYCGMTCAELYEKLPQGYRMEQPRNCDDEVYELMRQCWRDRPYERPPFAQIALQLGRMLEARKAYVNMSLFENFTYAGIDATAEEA

[35] = target: Serine/threonine-protein kinase ULK1 (Homo sapiens) (UniProt O75385); conditions: Compound concentration 1000.0 nM
[36] = target: Tyrosine-protein kinase Yes (Homo sapiens) (UniProt P07947); conditions: Compound concentration 1000.0 nM
[37] = target: Mitogen-activated protein kinase kinase kinase 20 (Homo sapiens) (UniProt Q9NYL2); conditions: Compound concentration 1000.0 nM
[38] = target: Tyrosine-protein kinase ZAP-70 (Homo sapiens) (UniProt P43403); conditions: Compound concentration 1000.0 nM

Cannabinoid receptor 2 (Homo sapiens), sequence (P34972 whole entry): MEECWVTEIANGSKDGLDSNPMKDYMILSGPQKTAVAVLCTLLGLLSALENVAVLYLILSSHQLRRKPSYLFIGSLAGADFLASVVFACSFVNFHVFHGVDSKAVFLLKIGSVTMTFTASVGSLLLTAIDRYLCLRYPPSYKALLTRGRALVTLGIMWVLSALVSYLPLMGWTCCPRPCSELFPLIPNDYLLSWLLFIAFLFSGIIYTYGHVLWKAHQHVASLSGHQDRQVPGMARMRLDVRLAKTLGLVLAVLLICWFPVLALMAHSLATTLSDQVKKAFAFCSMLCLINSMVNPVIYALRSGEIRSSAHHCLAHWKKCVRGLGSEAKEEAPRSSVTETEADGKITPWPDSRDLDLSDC

Structure (SMILES) | % Inhibition of Control Specific Binding (Mean n=2) [1] [%] | % Inhibition of Control Specific Binding (Mean n=2) [2] [%] | inhibition at 120 min, 10 µM [3] [%] | inhibition at 60 min, 10 µM [4] [%] | residual activity [5] [%] | residual activity [6] [%] | residual activity [7] [%] | residual activity [8] [%] | residual activity [9] [%] | residual activity [10] [%] | residual activity [11] [%] | residual activity [12] [%] | residual activity [13] [%] | residual activity [14] [%] | residual activity [15] [%] | residual activity [16] [%] | residual activity [17] [%] | residual activity [18] [%] | residual activity [19] [%] | residual activity [20] [%] | other results
CCCOc1ccc([C@H]2[C@H](C(=O)O)[C@@H](c3ccc4c(c3)OCO4)CN2CC(=O)Nc2c(CC)cccc2CC)cc1 [A-192621] | 33.6 | -1.9 | 4.2 | 29.1 | 100 | 65 | 55 | 95 | 88 | 83 | 92 | 100 | 100 | 71 | 100 | 89 | 81 | 86 | 90 | 75 | residual activity [21]: 74%; residual activity [22]: 74%; residual activity [23]: 95%; residual activity [24]: 92%; residual activity [25]: 100%; residual activity [26]: 74%; residual activity [27]: 62%; residual activity [28]: 74%; residual activity [29]: 100%; residual activity [30]: 98%; residual activity [31]: 82%; residual activity [32]: 63%; residual activity [33]: 58%; residual activity [34]: 94%; residual activity [35]: 68%; residual activity [36]: 99%; residual activity [37]: 90%; residual activity [38]: 50%
CCCOc1ccc([C@@H]2[C@@H](C(=O)O)[C@H](c3ccc4c(c3)OCO4)CN2CC(=O)Nc2c(CC)cccc2CC)cc1 [A-1806262] | 14.6 | -16.5 | 15.4 | 24.4 | 100 | 77 | 72 | 100 | 87 | 98 | 94 | 100 | 80 | 74 | 87 | 66 | 58 | 88 | 100 | 79 | residual activity [21]: 85%; residual activity [22]: 89%; residual activity [23]: 100%; residual activity [24]: 99%; residual activity [25]: 64%; residual activity [26]: 85%; residual activity [27]: 89%; residual activity [28]: 91%; residual activity [29]: 100%; residual activity [30]: 100%; residual activity [31]: 81%; residual activity [32]: 90%; residual activity [33]: 78%; residual activity [34]: 96%; residual activity [35]: 77%; residual activity [36]: 90%; residual activity [37]: 100%; residual activity [38]: 94%
